Legend:
pseudovirus HIV-1 HXB2 = assay: microbe, parasite or virus in culture; format: cell-based
in vitro = settings: human
[1] = Human immunodeficiency virus 1, HXB2, TZM-bl, anti-HIV-1 activity, single-cycle assay, TZM-bl cells, pseudovirus HIV-1 HXB2, read-out: IC50
[2] = anti-HIV-1 activity, single-cycle assay, TZM-bl cells, pseudovirus HIV-1 HXB2, read-out: IC50
[3] = CC50, cytotoxicity, TZM-bl cells, MTS, 3 days

Row | SMILES | IC50 (pseudovirus HIV-1 HXB2; [1]) | CC50 at 3 days (in vitro; CC50) | IC50 (pseudovirus HIV-1 HXB2; TZM-bl) | IC50 (pseudovirus HIV-1 HXB2; [2]) | CC50 at 3 days (in vitro; [3])
1 | Cc1cc(-c2ccc(C(F)(F)F)cn2)[nH]c1C(=O)NC(C)(CN)c1nc(CO)cs1 (racemic) [Compound 31, N-(1-Amino-2-(4-(hydroxymethyl)thiazol-2-yl)propan-2-yl)-3-methyl-5-(5-(trifluoromethyl)-pyridin-2-yl)-1H-pyrrole-2-carboxamide] | 2.6 ± 0.4 µM | > 68.3 µM |  |  | 
2 | CC(CN)(NC(=O)c1ccc(-c2ccc(C(F)(F)F)cn2)[nH]1)c1nc(CO)cs1 (racemic) [Compound 32, N-(1-Amino-2-(4-(hydroxymethyl)thiazol-2-yl)propan-2-yl)-5-(5-(trifluoromethyl)pyridin-2-yl)-1H-pyrrole-2-carboxamide] | 5.1 ± 0.4 µM | > 70.5 µM |  |  | 
3 | NCC(NC(=O)c1ccc(-c2ccc(C(F)(F)F)c(F)c2)[nH]1)c1ncc(CO)s1 (centres unmarked) [Comparator A, reference compound] |  | 21.9 µM | 0.089 µM |  | 
4 | NCC(NC(=O)c1ccc(-c2ccc(C(F)(F)F)cc2)[nH]1)c1ncc(CO)s1 (centres unmarked) [Comparator B, reference compound] |  | 34 µM |  |  | 
5 | NCC(NC(=O)c1ccc(-c2ccc(Cl)cn2)[nH]1)c1ncc(CO)s1 (centres unmarked) [Compound 2, N-(2-Amino-1-(5-(hydroxymethyl)thiazol-2-yl)ethyl)-5-(5-chloropyridin-2-yl)-1H-pyrrole-2-carboxamide] |  | 142 ± 1.7 µM |  | 2.7 ± 0.7 µM | 
6 | Cc1cc(-c2ccc(Cl)cn2)[nH]c1C(=O)NC(CN)c1ncc(CO)s1 (centres unmarked) [Compound 3, N-(2-Amino-1-(5-(hydroxymethyl)thiazol-2-yl)ethyl)-5-(5-chloropyridin-2-yl)-3-methyl-1H-pyrrole-2-carboxamide] | 1.2 ± 0.1 µM | 98.3 ± 4 µM |  |  | 
7 | NCC(NC(=O)c1ccc(-c2ccc(C(F)(F)F)cn2)[nH]1)c1ncc(CO)s1 (centres unmarked) [Compound 5, N-(2-Amino-1-(5-(hydroxymethyl)thiazol-2-yl)ethyl)-5-(5-(trifluoromethyl)pyridin-2-yl)-1H-pyrrole-2-carboxamide] | < 1 µM | > 122 µM |  | 0.96 µM | 
8 | Cc1cc(-c2ccc(C(F)(F)F)cn2)[nH]c1C(=O)NC(CN)c1ncc(CO)s1 (centres unmarked) [Compound 7, N-(2-amino-1-(5-(hydroxymethyl)thiazol-2-yl)ethyl)-3-methyl-5-(5-(trifluoromethyl)pyridin-2-yl)-1H-pyrrole-2-carboxamide] | < 1 µM | 92.8 ± 2.4 µM |  |  | 
9 | Cc1cc(-c2ccc(C(F)(F)F)cn2)[nH]c1C(=O)NC(c1ncc(CO)s1)C(C)(C)N (centres unmarked) [Compound 11, N-(2-Amino-1-(5-(hydroxymethyl)thiazol-2-yl)-2-methylpropyl)-3-methyl-5-(5-(trifluoro-methyl)pyridin-2-yl)-1H-pyrrole-2-carboxamide] |  | 35.3 ± 2 µM |  | 0.6 ± 0.2 µM | < 50 µM
10 | NCC(NC(=O)c1ccc(-c2ccc(C(F)(F)F)cn2)[nH]1)c1ncc(C(O)CO)s1 (centres unmarked) [Compound 13, N-(2-Amino-1-(5-(1,2-dihydroxyethyl)thiazol-2-yl)ethyl)-5-(5-(trifluoromethyl)pyridin-2-yl)-1H-pyrrole-2-carboxamide] |  | > 113 µM |  | 2.1 ± 0.3 µM | > 100 µM
11 | NCC(NC(=O)c1ccc(-c2ccc(Cl)cn2)[nH]1)c1nc(CO)cs1 (centres unmarked) [Compound 15, N-(2-Amino-1-(4-(hydroxymethyl)thiazol-2-yl)ethyl)-5-(5-chloropyridin-2-yl)-1H-pyrrole-2-carboxamide] |  | > 132 µM |  | 5 ± 0.5 µM | > 100 µM
12 | NCC(NC(=O)c1ccc(-c2ccc(F)cn2)[nH]1)c1nc(CO)cs1 (centres unmarked) [Compound 17, N-(2-Amino-1-(4-(hydroxymethyl)thiazol-2-yl)ethyl)-5-(5-fluoropyridin-2-yl)-1H-pyrrole-2-carboxamide] | > 10 µM | > 138 µM |  | > 11 µM | > 100 µM
13 | Cc1ccc(-c2ccc(C(=O)NC(CN)c3nc(CO)cs3)[nH]2)nc1 (centres unmarked) [Compound 19, N-(2-Amino-1-(4-(hydroxymethyl)thiazol-2-yl)ethyl)-5-(5-methylpyridin-2-yl)-1H-pyrrole-2-carboxamide] |  | > 140 µM |  | 9.6 ± 1.2 µM | > 100 µM
14 | NCC(NC(=O)c1ccc(-c2ccc(C(F)(F)F)cn2)[nH]1)c1nc(CO)cs1 (centres unmarked) [Compound 21, N-(2-Amino-1-(4-(hydroxymethyl)thiazol-2-yl)ethyl)-5-(5-(trifluoromethyl)pyridin-2-yl)-1H-pyrrole-2-carboxamide] |  | 96 ± 6 µM |  | 0.5 µM | 
15 | CC(C)(N)C(NC(=O)c1ccc(-c2ccc(C(F)(F)F)cn2)[nH]1)c1nc(CO)cs1 (centres unmarked) [Compound 23, N-(2-Amino-1-(4-(hydroxymethyl)thiazol-2-yl)-2-methylpropyl)-5-(5-(trifluoromethyl)pyridin-2-yl)-1H-pyrrole-2-carboxamide] |  | 61 ± 6.5 µM |  | 1.73 µM | < 50 µM
16 | NCC(NC(=O)c1ccc(-c2ccc(C(F)(F)F)cn2)[nH]1)c1nc(CCO)cs1 (centres unmarked) [Compound 25, N-(2-Amino-1-(4-(2-hydroxyethyl)thiazol-2-yl)ethyl)-5-(5-(trifluoromethyl)pyridin-2-yl)-1H-pyrrole-2-carboxamide] |  | 100 ± 7 µM |  | 1.7 µM | 
17 | NCC(NC(=O)c1ccc(-c2ccc(C(F)(F)F)cn2)[nH]1)c1nc(C(O)CO)cs1 (centres unmarked) [Compound 29, N-(2-Amino-1-(4-(1,2-dihydroxyethyl)thiazol-2-yl)ethyl)-5-(5-(trifluoromethyl)pyridin-2-yl)-1H-pyrrole-2-carboxamide] | 5.2 ± 0.9 µM | > 113 µM |  |  | > 100 µM
18 | NCC(NC(=O)c1ccc(-c2ccc(C(F)(F)F)cn2)[nH]1)c1nc(CO)c(CO)s1 (centres unmarked) [Compound 35, N-(2-Amino-1-(4,5-bis(hydroxymethyl)thiazol-2-yl)ethyl)-5-(5-(trifluoromethyl)pyridin-2-yl)-1H-pyrrole-2-carboxamide] |  | > 113 µM |  | 1.8 µM | 
19 | NCC(NC(=O)c1ccc(-c2ccc(C(F)(F)F)cn2)[nH]1)c1nccs1 (centres unmarked) [Compound 37, N-(2-Amino-1-(thiazol-2-yl)ethyl)-5-(5-(trifluoromethyl)pyridin-2-yl)-1H-pyrrole-2-carboxamide] | 2 ± 0.2 µM | 89.3 ± 1 µM |  |  | 
20 | NCC(NC(=O)c1ccc(-c2ccc(Cl)nc2)[nH]1)c1nc(CO)cs1 (centres unmarked) [Compound 39, N-(2-Amino-1-(4-(hydroxymethyl)thiazol-2-yl)ethyl)-5-(6-chloropyridin-3-yl)-1H-pyrrole-2-carboxamide] | > 10 µM | > 132 µM |  | > 11 µM | > 100 µM
21 | NCC(NC(=O)c1ccc(-c2ccc(C(F)(F)F)nc2)[nH]1)c1nc(CO)cs1 (centres unmarked) [Compound 41, N-(2-Amino-1-(4-(hydroxymethyl)thiazol-2-yl)ethyl)-5-(6-(trifluoromethyl)pyridin-3-yl)-1H-pyrrole-2-carboxamide] | > 10 µM | > 122 µM |  | 12.7 ± 2.8 µM | > 100 µM
22 | NCC(NC(=O)c1ccc(-c2ccc(C(F)(F)F)nn2)[nH]1)c1nc(CO)cs1 (centres unmarked) [Compound 43, N-(2-Amino-1-(4-(hydroxymethyl)thiazol-2-yl)ethyl)-5-(6-(trifluoromethyl)pyridazin-3-yl)-1H-pyrrole-2-carboxamide] | > 10 µM | > 73 µM |  | > 12 µM | 
23 | NCC(NC(=O)c1ccc(-c2ncc(Cl)cn2)[nH]1)c1nc(CO)cs1 (centres unmarked) [Compound 45, N-(2-Amino-1-(4-(hydroxymethyl)thiazol-2-yl)ethyl)-5-(5-chloropyrimidin-2-yl)-1H-pyrrole-2-carboxamide] | > 10 µM | > 66 µM |  | > 15.8 µM | 
24 | COc1cc(-c2ccc(C(=O)NC(CN)c3nc(CO)cs3)[nH]2)ccn1 (centres unmarked) [Compound 47, N-(2-Amino-1-(4-(hydroxymethyl)thiazol-2-yl)ethyl)-5-(2-methoxypyridin-4-yl)-1H-pyrrole-2-carboxamide] | > 10 µM | > 133 µM |  | > 11 µM | 
25 | NCC(NC(=O)c1ccc(-c2ccc(C(F)(F)F)cn2)[nH]1)c1cnc(CO)s1 (centres unmarked) [Compound 57, N-(2-Amino-1-(2-(hydroxymethyl)thiazol-5-yl)ethyl)-5-(5-(trifluoromethyl)pyridin-2-yl)-1H-pyrrole-2-carboxamide] | 2.1 ± 0.4 µM | > 122 µM |  |  | 
26 | NCC(NC(=O)c1ccc(-c2ccc(Cl)cn2)[nH]1)c1cnc(CO)s1 (centres unmarked) [Compound 59, N-(2-Amino-1-(2-(hydroxymethyl)thiazol-5-yl)ethyl)-5-(5-chloropyridin-2-yl)-1H-pyrrole-2-carboxamide] |  | > 106 µM |  | ~26 µM | 
27 | Cc1cc(-c2ccc(C(F)(F)F)cn2)[nH]c1C(=O)NC(CN)c1cnc(CO)s1 (centres unmarked) [Compound 61, N-(2-Amino-1-(2-(hydroxymethyl)thiazol-5-yl)ethyl)-3-methyl-5-(5-(trifluoromethyl)pyridin-2-yl)-1H-pyrrole-2-carboxamide] | 2.3 ± 1 µM | 65 ± 4.9 µM |  |  | 
28 | Cc1cc(-c2ccc(C(F)(F)F)cn2)[nH]c1C(=O)NC(CN)c1csc(CO)n1 (centres unmarked) [Compound 63, N-(2-Amino-1-(2-(hydroxymethyl)thiazol-4-yl)ethyl)-3-methyl-5-(5-(trifluoromethyl)pyridin-2-yl)-1H-pyrrole-2-carboxamide] | 1.4 ± 0.1 µM | 42.3 ± 0.2 µM |  |  | 
29 | NCC(NC(=O)c1ccc(-c2ccc(C(F)(F)F)cn2)[nH]1)c1csc(CO)n1 (centres unmarked) [Compound 65, N-(2-Amino-1-(2-(hydroxymethyl)thiazol-4-yl)ethyl)-5-(5-(trifluoromethyl)pyridin-2-yl)-1H-pyrrole-2-carboxamide] | 1.6 ± 0.2 µM | 84.3 ± 1.4 µM |  |  | 
30 | NCC(NC(=O)c1ccc(-c2ccc(Cl)cn2)[nH]1)c1csc(CO)n1 (centres unmarked) [Compound 67, N-(2-Amino-1-(2-(hydroxymethyl)thiazol-4-yl)ethyl)-5-(5-chloropyridin-2-yl)-1H-pyrrole-2-carboxamide] |  | > 106 µM |  |  | 
